This is an account of results in US8541411B2, “Benzimidazole derivatives as PI3 kinase inhibitors” (GlaxoSmithKline LLC, priority 2010, dated 2013).

In this experiment the target is T1, PI3Kβ (Homo sapiens, UniProt P42338).
T1 construct: made in house
T1 sequence (P42338 whole entry): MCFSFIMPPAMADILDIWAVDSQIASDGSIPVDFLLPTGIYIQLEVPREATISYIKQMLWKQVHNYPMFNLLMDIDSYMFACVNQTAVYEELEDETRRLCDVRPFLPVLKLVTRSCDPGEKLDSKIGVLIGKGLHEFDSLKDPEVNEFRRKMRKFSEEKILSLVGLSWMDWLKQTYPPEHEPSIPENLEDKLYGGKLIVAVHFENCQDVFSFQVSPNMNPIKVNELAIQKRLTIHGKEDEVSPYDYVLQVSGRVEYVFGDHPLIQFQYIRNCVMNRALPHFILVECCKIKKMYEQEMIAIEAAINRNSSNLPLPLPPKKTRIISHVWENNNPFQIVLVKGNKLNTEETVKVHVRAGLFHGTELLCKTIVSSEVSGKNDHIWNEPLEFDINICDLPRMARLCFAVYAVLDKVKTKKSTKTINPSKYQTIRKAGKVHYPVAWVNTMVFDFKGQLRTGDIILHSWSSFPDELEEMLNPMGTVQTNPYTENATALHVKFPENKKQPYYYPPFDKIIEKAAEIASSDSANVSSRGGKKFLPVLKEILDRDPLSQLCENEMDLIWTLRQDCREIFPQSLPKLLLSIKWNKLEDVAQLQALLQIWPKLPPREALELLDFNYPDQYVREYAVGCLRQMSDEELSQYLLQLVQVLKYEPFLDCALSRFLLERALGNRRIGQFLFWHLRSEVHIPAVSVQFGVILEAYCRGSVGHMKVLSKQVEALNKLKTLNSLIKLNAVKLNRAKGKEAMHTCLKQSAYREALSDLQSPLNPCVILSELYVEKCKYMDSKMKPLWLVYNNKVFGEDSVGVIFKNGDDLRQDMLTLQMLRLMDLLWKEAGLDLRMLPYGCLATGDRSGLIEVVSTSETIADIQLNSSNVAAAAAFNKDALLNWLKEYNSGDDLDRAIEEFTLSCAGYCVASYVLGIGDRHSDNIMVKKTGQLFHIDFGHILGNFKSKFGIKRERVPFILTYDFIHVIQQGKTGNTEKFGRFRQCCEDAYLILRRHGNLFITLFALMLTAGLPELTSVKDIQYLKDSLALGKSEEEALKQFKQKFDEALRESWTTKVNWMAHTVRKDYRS
T1 sequence (P27986 whole entry partner): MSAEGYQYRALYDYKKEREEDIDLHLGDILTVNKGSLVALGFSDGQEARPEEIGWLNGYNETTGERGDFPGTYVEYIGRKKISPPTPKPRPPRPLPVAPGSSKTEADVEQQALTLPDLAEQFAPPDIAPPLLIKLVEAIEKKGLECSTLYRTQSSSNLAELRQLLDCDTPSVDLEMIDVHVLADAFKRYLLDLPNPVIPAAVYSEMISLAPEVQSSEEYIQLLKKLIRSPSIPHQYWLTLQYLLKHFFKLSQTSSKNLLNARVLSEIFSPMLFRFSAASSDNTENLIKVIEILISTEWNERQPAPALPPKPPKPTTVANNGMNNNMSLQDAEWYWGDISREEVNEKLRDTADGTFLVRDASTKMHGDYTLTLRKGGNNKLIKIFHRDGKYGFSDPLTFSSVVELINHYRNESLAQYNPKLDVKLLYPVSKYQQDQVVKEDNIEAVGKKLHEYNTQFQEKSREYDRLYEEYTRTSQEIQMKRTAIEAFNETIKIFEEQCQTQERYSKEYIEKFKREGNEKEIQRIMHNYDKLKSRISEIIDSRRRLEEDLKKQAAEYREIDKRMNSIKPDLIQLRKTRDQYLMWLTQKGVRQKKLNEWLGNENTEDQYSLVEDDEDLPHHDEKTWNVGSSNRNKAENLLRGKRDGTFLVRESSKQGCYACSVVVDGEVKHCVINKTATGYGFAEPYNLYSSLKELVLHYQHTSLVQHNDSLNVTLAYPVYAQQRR
The experiment can be described thus: HTRF in vitro profiling assay for PI3K inhibition, beta isoform. The following applies: one experimental run or average of two or more runs; 200 pM enzyme, 100 uM ATP, 10 uM PIP2; read-out: P13KB PIC50 MEAN (converted). The format is biochemical. An excerpt:
The PI3-Kinase profiling assays were developed to measure the compound-dependent inhibition of the alpha, beta, delta, and gamma isoforms of PI3K in an in vitro catalytic assay. This assay was developed and optimized from a kit produced by Upstate (Millipore catalog #33-017). Briefly, this procedure utilizes a pre-formed HTRF (Homogeneous Time-Resolved Fluorescence energy transfer) complex between four binding partners: 1) biotinylated PIP3, 2) GST tagged pleckstrin homology (PH) domain, 3) Europium labeled anti-GST monoclonal antibody, and 4) Streptavidin-Allophycocyanin (APC). The native PIP3 produced by PI 3-Kinase activity displaces biotin-PIP3 from the PH domain, resulting in the dissociation of the HTRF complex and a decrease in the fluorescence signal. The format of this assay is the same for all 4 isoforms of PI3K; the differences lie in the concentration of enzyme used to achieve the most robust signal. The alpha and delta assays are run at 400 pM enzyme; the beta assay is at 200 pM enzyme and the gamma assay is run at 1 nM enzyme. In addition, the alpha, beta and delta assays are run with 150 mM NaCl while the gamma assay is run in the absence of NaCl. The ATP concentration is 100 uM in the alpha, beta, and delta assays and 15 uM ATP in the gamma assay. All reactions are run at 10 uM PIP2
Compounds were serially diluted (3-fold in 100% DMSO) across a 384-well polypropylene mother plate from column 1 to column 12 and column 13 to column 24, to yield 11 concentrations for each test compound. Columns 6 and 18 contain only DMSO. Once titrations were made, 0.05 μL was transferred to a 384-well low-volume assay plate (Greiner 784076). This assay plate contained three pharmacological controls (known PI3K inhibitors) and 3 assay controls: (1) Enzyme without inhibitor; (2) Buffer minus enzyme, and (3) Buffer minus enzyme plus native PIP3. DMSO was stamped into all wells of columns 6 and 18. PIP3 was added at 40 μM in 1× Reaction buffer (1 μL of 200 μM PIP3) to alternating rows of column 18 (wells 18 B, D, F, H, J, L, N, P). The no-enzyme control reactions were run in wells 18 A, C, E, G, I, K, M, O (0.1 μL of 100% DMSO).
The PI3-Kinase profiling assay was optimized using the HTRF kit provided by Upstate (Millipore). The assay kit contained seven reagents: 1) 4× Reaction Buffer; 2) native PIP2 (substrate); 3) Stop A (EDTA); 4) Stop B (Biotin-PIP3); 5) Detection Mix A (Streptavidin-APC); 6) Detection Mix B (Eu-labeled Anti-GST plus GST-tagged PH-domain); 7) Detection Mix C (KF). In addition, the following items were obtained or purchased: PI3Kinase (prepared by GSK BR&AD), dithiothreitol (Sigma, D-5545), Adenosine-5′-triphosphate (ATP, Teknova cat. #A0220), native PIP3 (1,2-dioctanoyl-sn-glycero-3-[phosphoinositil-3,4,5-triphosphate]tetraammonium salt (Avanti polar lipids, 850186P), DMSO (Sigma, 472301).
PI3Kinase Reaction Buffer was prepared by diluting the stock 1:4 with de-ionized water. Freshly prepared DTT was added at a final concentration of 5 mM on the day of use. Enzyme addition and compound pre-incubation were initiated by the addition of 2.5 μL of PI3K (at twice its final concentration) in 1× reaction buffer to all wells using a Multidrop Combi. Plates were incubated at room temperature for 15 minutes. Reactions were initiated by addition of 2.5 μL of 2× substrate solution (PIP2 and ATP in 1× reaction buffer) using a Multidrop Combi. Plates were incubated at room temperature for one hour. Reactions were quenched by the addition of 2.5 μL of stop solution (Stop A and Stop B pre-mixed at a ratio of 5:1, respectively) to all wells using the Multidrop Combi.
Background: TR-FRET usually uses a lanthanide donor and a delayed reading to cut background.
Take `CC(=O)Nc1cc(N2CCOCC2)cc2c1nc(C)n2Cc1cccc2ccccc12` [Example 3, N-(2-Methyl-6-morpholin-4-yl-1-naphthalen-1-ylmethyl-1H-benzoimidazol-4-yl)-acetamide]: the IC50 was 200 nM. As to `Cc1c(Cn2c(C(F)(F)F)nc3c(C(N)=O)cc(N4CCOCC4)cc32)cccc1C(F)(F)F` [Example 54, 1-{[2-methyl-3-(trifluoromethyl)phenyl]methyl}-6-(4-morpholinyl)-2-(trifluoromethyl)-1H-benzimidazole-4-carboxamide], the IC50 is 2.51 nM. With `CCc1nc2c(F)cc(N3CCOCC3)cc2n1Cc1cccc(Cl)c1Cl` [Example 18, 1-[(2,3-dichlorophenyl)methyl]-2-ethyl-4-fluoro-6-(4-morpholinyl)-1H-benzimidazole], the IC50 was 10 nM.

For the molecule `Cc1nc2c(C#N)cc(N3CCOCC3)cc2n1Cc1cccc(Cl)c1Cl` [Example 32, 1-[(2,3-dichlorophenyl)methyl]-2-methyl-6-(4-morpholinyl)-1H-benzimidazole-4-carbonitrile], the IC50 was 12.6 nM. In the case of `Cc1nc2c(C(=O)O)cc(N3CCOCC3)cc2n1Cc1cccc2ccsc12` [Example 73, 1-(1-benzothien-7-ylmethyl)-2-methyl-6-(4-morpholinyl)-1H-benzimidazole-4-carboxylic acid] it was 25.1 nM; in that of `Cc1nc2c(C(=O)O)cc(N3CCOCC3)cc2n1Cc1cccc2ccccc12` [Example 20, 2-methyl-6-(4-morpholinyl)-1-(1-naphthalenylmethyl)-1H-benzimidazole-4-carboxylic acid], 6.31 nM. With `Cc1c(Cn2c(C)nc3c(-c4nnc[nH]4)cc(N4CCOCC4)cc32)cccc1C(F)(F)F` [Example 39, 2-methyl-1-{[2-methyl-3-(trifluoromethyl)phenyl]methyl}-6-(4-morpholinyl)-4-(1H-1,2,4-triazol-3-yl)-1H-benzimidazole] the figure was 0.631 nM; with `CCc1nc2c(O)cc(N3CCOCC3)cc2n1Cc1cccc(Cl)c1Cl` [Example 14, 1-[(2,3-dichlorophenyl)methyl]-2-ethyl-6-(4-morpholinyl)-1H-benzimidazol-4-ol], 3.16 nM; with `CC(=O)c1cc(N2CCOCC2)cc2c1nc(C)n2Cc1cccc2ccccc12` [Example 41, 1-[2-methyl-6-(4-morpholinyl)-1-(1-naphthalenylmethyl)-1H-benzimidazol-4-yl]ethanone], 1.58 nM. With `Cc1nc2c(O)cc(N3CCOCC3)cc2n1Cc1cccc2ccccc12` [Example 5, 2-methyl-6-(4-morpholinyl)-1-(1-naphthalenylmethyl)-1H-benzimidazol-4-ol] the figure was 1.58 nM.

`Cc1nc2c(-c3nnn[nH]3)cc(N3CCOCC3)cc2n1Cc1cccc2ccccc12` [Example 58, 2-methyl-6-(4-morpholinyl)-1-(1-naphthalenylmethyl)-4-(1H-tetrazol-5-yl)-1H-benzimidazole]: the IC50 is 6.31 nM. In the case of `Cc1nc2c(C(=O)O)cc(N3CCOCC3)cc2n1Cc1cccc(Cl)c1Cl` [Example 22, 1-[(2,3-dichlorophenyl)methyl]-2-methyl-6-(4-morpholinyl)-1H-benzimidazole-4-carboxylic acid] it was 15.8 nM; in that of `Cc1c(Cl)cccc1Cn1c(C(F)F)nc2c(C(=O)O)cc(N3CCOCC3)cc21` [Example 72, 1-[(3-chloro-2-methylphenyl)methyl]-2-(difluoromethyl)-6-(4-morpholinyl)-1H-benzimidazole-4-carboxylic acid], 1.58 nM.

As to `Cc1nc2c(C(=O)O)cc(N3CCOCC3)cc2n1Cc1ccc(Cl)c(Cl)c1` [Example 38, 1-[(3,4-dichlorophenyl)methyl]-2-methyl-6-(4-morpholinyl)-1H-benzimidazole-4-carboxylic acid], the IC50 was 100 nM. As to `Cc1c(Cl)cccc1Cn1c(C)nc2c(C(=O)O)cc(N3CCOCC3)cc21` [Example 59, 1-[(3-chloro-2-methylphenyl)methyl]-2-methyl-6-(4-morpholinyl)-1H-benzimidazole-4-carboxylic acid], the IC50 was 6.31 nM. Turning to `Cc1c(Cn2c(C)nc3c(Br)cc(N4CCOCC4)cc32)cccc1C(F)(F)F` [Example 63, 4-bromo-2-methyl-1-{[2-methyl-3-(trifluoromethyl)phenyl]methyl}-6-(4-morpholinyl)-1H-benzimidazole], the IC50 is 1 nM.

For `CC(C)c1nc2c(O)cc(N3CCOCC3)cc2n1Cc1cccc(Cl)c1Cl` [Example 13, 1-[(2,3-dichlorophenyl)methyl]-2-(1-methylethyl)-6-(4-morpholinyl)-1H-benzimidazol-4-ol], the IC50 was 7.94 nM.

On to `Cc1nc2c(F)cc(N3CCOCC3)cc2n1Cc1cccc2ccccc12` [Example 15, 4-fluoro-2-methyl-6-(4-morpholinyl)-1-(1-naphthalenylmethyl)-1H-benzimidazole], for which the IC50 is 1 nM. With `Cc1nc2c(C(=O)O)cc(N3CCOCC3)cc2n1Cc1cccc2cccnc12` [Example 35, 2-methyl-6-(4-morpholinyl)-1-(8-quinolinylmethyl)-1H-benzimidazole-4-carboxylic acid] the figure was 63.1 nM; with `CC(C)c1nc2c(O)cc(N3CCOCC3)cc2n1Cc1cccc2ccccc12` [Example 11, 2-(1-methylethyl)-6-(4-morpholinyl)-1-(1-naphthalenylmethyl)-1H-benzimidazol-4-ol], 2 nM. With `Cc1c(Cn2c(C(F)F)nc3c(C(=O)O)cc(N4CCOCC4)cc32)cccc1C(F)(F)F` [Example 70, 2-(difluoromethyl)-1-{[2-methyl-3-(trifluoromethyl)phenyl]methyl}-6-(4-morpholinyl)-1H-benzimidazole-4-carboxylic acid] the figure was 0.2 nM; with `Cc1nc2c(-c3nnc[nH]3)cc(N3CCOCC3)cc2n1Cc1cccc2ccccc12` [Example 25, 2-methyl-6-(4-morpholinyl)-1-(1-naphthalenylmethyl)-4-(1H-1,2,4-triazol-3-yl)-1H-benzimidazole], 0.251 nM. With `O=C(O)c1cc(N2CCOCC2)cc2c1nc(C(F)(F)F)n2Cc1cccc2ccccc12` [Example 50, 6-(4-morpholinyl)-1-(1-naphthalenylmethyl)-2-(trifluoromethyl)-1H-benzimidazole-4-carboxylic acid] the figure was 1.26 nM; with `Cc1c(Cn2c(C)nc3c(CO)cc(N4CCOCC4)cc32)cccc1C(F)(F)F` [Example 43, [2-methyl-1-{[2-methyl-3-(trifluoromethyl)phenyl]methyl}-6-(4-morpholinyl)-1H-benzimidazol-4-yl]methanol], 5.01 nM; with `Cc1c(Cl)cccc1Cn1c(C(F)(F)F)nc2c(C(=O)O)cc(N3CCOCC3)cc21` [Example 53, 1-[(3-chloro-2-methylphenyl)methyl]-6-(4-morpholinyl)-2-(trifluoromethyl)-1H-benzimidazole-4-carboxylic acid], 0.501 nM. For the molecule `CCc1nc2c(F)cc(N3CCOCC3)cc2n1Cc1cccc2ccccc12` [Example 17, 2-ethyl-4-fluoro-6-(4-morpholinyl)-1-(1-naphthalenylmethyl)-1H-benzimidazole], the IC50 is 2.51 nM.
